One test concerns the target human A2B receptors (Homo sapiens (Human), UniProt P29275). In words: A2B antagonism in cAMP cell-based assay (LANCE cAMP, HEK293). To be noted: HEK293 cells expressing human A2B receptor. A digest of the protocol: (§1)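 HEK293 cells expressing human A2A or A2B, in HBSS/5 mM HEPES/200 nM rolipram, were preincubated with compound (0.5–10,000 nM, 0.25% DMSO) 30 min at 37° C. Adenosine was then added from 300 nM (A2A) or 600 nM (A2B) solution for 30 min.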
Background: Time-resolved FRET reads energy transfer from a long-lived donor to a nearby acceptor.

The next test has as its target human A2A receptors (Homo sapiens (Human), UniProt P29274). In words: A2A antagonism in cAMP cell-based assay (LANCE cAMP, HEK293). Conditions: HEK293 cells expressing human A2A receptor. The method, boiled down:
as §1

This note sets out measurements from US11312719B2, “9-substituted amino triazolo quinazoline derivatives as adenosine receptor antagonists, pharmaceutical compositions and their use” (Merck Sharp & Dohme Corp., priority 2018, dated 2022).

Chain of human A2A receptors (P29274 whole entry): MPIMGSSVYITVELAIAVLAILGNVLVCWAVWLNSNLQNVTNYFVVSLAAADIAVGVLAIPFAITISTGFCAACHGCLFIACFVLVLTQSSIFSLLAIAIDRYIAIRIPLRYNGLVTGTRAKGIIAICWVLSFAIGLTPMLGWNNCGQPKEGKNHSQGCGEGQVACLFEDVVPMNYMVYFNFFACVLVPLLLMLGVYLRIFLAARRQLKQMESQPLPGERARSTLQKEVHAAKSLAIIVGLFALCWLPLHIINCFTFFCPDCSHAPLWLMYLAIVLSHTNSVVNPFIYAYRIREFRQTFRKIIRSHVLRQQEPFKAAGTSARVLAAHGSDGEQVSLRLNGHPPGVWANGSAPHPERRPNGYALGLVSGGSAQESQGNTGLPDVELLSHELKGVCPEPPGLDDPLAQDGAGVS
Chain of human A2B receptors (P29275 whole entry): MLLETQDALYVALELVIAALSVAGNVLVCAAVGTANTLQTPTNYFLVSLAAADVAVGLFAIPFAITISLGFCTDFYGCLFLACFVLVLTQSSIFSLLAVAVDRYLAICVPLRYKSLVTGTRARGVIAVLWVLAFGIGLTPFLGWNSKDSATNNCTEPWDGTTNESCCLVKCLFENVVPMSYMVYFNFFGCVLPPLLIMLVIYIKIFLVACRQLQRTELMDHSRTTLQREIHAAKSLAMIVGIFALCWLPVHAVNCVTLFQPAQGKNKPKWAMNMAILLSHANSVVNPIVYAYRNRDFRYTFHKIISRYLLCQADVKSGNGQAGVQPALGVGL

As usually defined, the IC50 is the concentration that gives 50% inhibition. Read a high IC50 as weaker potency. As for `COc1cc(F)cc2c1nc(N)n1nc(C3CC(C)CN(c4cnn(C(C)(C)CO)c4)C3)nc21` (single isomer, unassigned) [Example 165, 2-(4-((3R,5S or 3S,5R)-3-(5-amino-9-fluoro-7-methoxy-[1,2,4]triazolo[1,5-c]quinazolin-2-yl)-5-methylpiperidin-1-yl)-1H-pyrazol-1-yl)-2-methylpropan-1-ol], the IC50 against human A2B receptors was 6.4 nM; against human A2A receptors, 0.8 nM.

With `COc1cc2nc(N)n3nc([C@@H]4C[C@H](C)CN(c5cn([C@H](C)[C@@H](C)O)nc5C)C4)nc3c2cc1F` (single isomer, unassigned) [Example 209, (2R,3R or 2S,3S)-3-(4-((3R,5S or 3S,5R)-3-(5-amino-9-fluoro-8-methoxy-[1,2,4]triazolo[1,5-c]quinazolin-2-yl)-5-methylpiperidin-1-yl)-3-methyl-1H-pyrazol-1-yl)butan-2-ol], the IC50 against human A2B receptors turned out to be 635 nM; on human A2A receptors, 0.7 nM.

On to `COc1cc(F)cc2c1nc(N)n1nc([C@@H]3CCCN(c4cnn(C(C)C(C)O)c4)C3)nc21` (single isomer, unassigned) [Example 202, (2S,3R or 2R,3S)-3-(4-((R)-3-(5-amino-9-fluoro-7-methoxy-[1,2,4]triazolo[1,5-c]quinazolin-2-yl)piperidin-1-yl)-1H-pyrazol-1-yl)butan-2-ol], for which the figures for the IC50 against human A2B receptors and at human A2A receptors were 62.4 nM and 1.4 nM, respectively.

With `COc1cc2nc(N)n3nc([C@@H]4CCCN(c5cnn(C(C)C(C)O)c5C)C4)nc3c2cc1F` (single isomer, unassigned) [Example 195, (2S,3S or 2R,3R)-3-(4-((R)-3-(5-amino-9-fluoro-8-methoxy-[1,2,4]triazolo[1,5-c]quinazolin-2-yl)piperidin-1-yl)-5-methyl-1H-pyrazol-1-yl)butan-2-ol], the IC50 worked out at 389 nM against human A2B receptors and 3.4 nM against human A2A receptors.

Regarding `COc1cc2nc(N)n3nc([C@@H]4CCCN(c5cnn(C(C)C(C)O)c5C)C4)nc3c2cc1F` (single isomer, unassigned) [Example 196, (2R,3R or 2S,3S)-3-(4-((R)-3-(5-amino-9-fluoro-8-methoxy-[1,2,4]triazolo[1,5-c]quinazolin-2-yl)piperidin-1-yl)-5-methyl-1H-pyrazol-1-yl)butan-2-ol], the IC50 against human A2B receptors was 475 nM; at human A2A receptors it was 3.7 nM.

Consider `COc1cc(F)cc2c1nc(N)n1nc(C3CCC(C)N(c4cnn(C(C)(C)C(C)O)c4)C3)nc21` (single isomer, unassigned) [Example 268, (R or S)-3-(4-((2S,5R or 2R,5S)-5-(5-amino-9-fluoro-7-methoxy-[1,2,4]triazolo[1,5-c]quinazolin-2-yl)-2-methylpiperidin-1-yl)-1H-pyrazol-1-yl)-3-methylbutan-2-ol], for which the IC50 was found to be 4.7 nM against human A2B receptors and 0.7 nM against human A2A receptors.

Turning to `CC1CC(c2nc3c4cc(F)cc(F)c4nc(N)n3n2)CN(c2cnn(CC(C)(C)O)c2)C1` (single isomer, unassigned) [Example 164, 1-(4-((3S,5R or 3R,5S)-3-(5-amino-7,9-difluoro-[1,2,4]triazolo[1,5-c]quinazolin-2-yl)-5-methylpiperidin-1-yl)-1H-pyrazol-1-yl)-2-methylpropan-2-ol], the IC50 against human A2B receptors was determined as 47.7 nM; on human A2A receptors, 1.9 nM.

Take `COc1cc(F)cc2c1nc(N)n1nc(C3CC(C)CN(c4cnn(C(C)C(C)O)c4C)C3)nc21` (single isomer, unassigned) [Example 223, (2S,3S or 2R,3R)-3-(4-((3S,5R or 3R,5S)-3-(5-amino-9-fluoro-7-methoxy-[1,2,4]triazolo[1,5-c]quinazolin-2-yl)-5-methylpiperidin-1-yl)-5-methyl-1H-pyrazol-1-yl)butan-2-ol]: the IC50 on human A2B receptors was found to be 46 nM; at human A2A receptors, 0.7 nM.

With `CC(C)(O)Cn1cc(N2CCC[C@@H](c3nc4c5cc(F)c(OC(F)F)cc5nc(N)n4n3)C2)cn1` [Example 153, (R)-1-(4-(3-(5-amino-8-(difluoromethoxy)-9-fluoro-[1,2,4]triazolo[l,5-c]quinazolin-2-yl)piperidin-l-yl)-1H-pyrazol-1-yl)-2-methylpropan-2-ol], the IC50 was determined as 720 nM against human A2B receptors and 7.4 nM on human A2A receptors.

Consider `CC(O)C(C)n1cc(N2CC(c3nc4c5cc(F)cc(F)c5nc(N)n4n3)CCC2C)cn1` (single isomer, unassigned) [Example 235, (2S,3S or 2R,3R)-3-(4-((2R,5S or 2S,5R)-5-(5-amino-7,9-difluoro-[1,2,4]triazolo[1,5-c]quinazolin-2-yl)-2-methylpiperidin-1-yl)-1H-pyrazol-1-yl)butan-2-ol], for which the values for the IC50 at human A2B receptors and against human A2A receptors were 4450 nM and 439 nM, respectively.

Take `COc1cc2nc(N)n3nc(C4CCC(C)N(c5cnn(C(C)C(C)O)c5)C4)nc3c2cc1F` (single isomer, unassigned) [Example 237, (2R,3S or 2S,3R)-3-(4-((2S,5R or 2R,5S)-5-(5-amino-9-fluoro-8-methoxy-[1,2,4]triazolo[1,5-c]quinazolin-2-yl)-2-methylpiperidin-1-yl)-1H-pyrazol-1-yl)butan-2-ol]: the IC50 on human A2B receptors worked out at 8.7 nM; against human A2A receptors, 0.8 nM.

For `COc1cc2nc(N)n3nc(C4CCC(C)N(c5cnn(CC(C)(O)CO)c5)C4)nc3c2cc1F` (single isomer, unassigned) [Example 252], the IC50 came out at 8160 nM at human A2B receptors and 95 nM on human A2A receptors.

Turning to `CC(O)C(C)n1cc(N2CC(c3nc4c5cc(F)cc(F)c5nc(N)n4n3)CCC2C)cn1` (single isomer, unassigned) [Example 232, (2S,3S or 2R,3R)-3-(4-((2S,5R or 2R,5S)-5-(5-amino-7,9-difluoro-[1,2,4]triazolo[1,5-c]quinazolin-2-yl)-2-methylpiperidin-1-yl)-1H-pyrazol-1-yl)butan-2-ol], the IC50 on human A2B receptors amounted to 12.7 nM; against human A2A receptors, 1.3 nM.

For the compound `COc1cc(F)cc2c1nc(N)n1nc(C3CC(C)CN(c4cnn(CC(C)(C)O)c4)C3)nc21` (single isomer, unassigned) [Example 159, 1-(4-((3R,5S or 3S,5R)-3-(5-amino-9-fluoro-7-methoxy-[1,2,4]triazolo[1,5-c]quinazolin-2-yl)-5-methylpiperidin-1-yl)-1H-pyrazol-1-yl)-2-methylpropan-2-ol], the half-maximal inhibitory concentration (IC50) was 29.3 nM at human A2B receptors and 1 nM on human A2A receptors.

For `COc1cc2nc(N)n3nc(C4CCC(C)N(c5cnn(C(C)(C)C(C)O)c5)C4)nc3c2cc1F` (single isomer, unassigned) [Example 266, (R or S)-3-(4-((2R,5S or 2S,5R)-5-(5-amino-9-fluoro-8-methoxy-[1,2,4]triazolo[1,5-c]quinazolin-2-yl)-2-methylpiperidin-1-yl)-1H-pyrazol-1-yl)-3-methylbutan-2-ol], the IC50 against human A2B receptors is 580 nM; on human A2A receptors it was 64.2 nM.

As for `COc1cc(F)cc2c1nc(N)n1nc([C@@H]3CCCN(c4cn(C(C)C(C)O)nc4C)C3)nc21` (single isomer, unassigned) [Example 189, (2S,3S or 2R,3R)-3-(4-((R)-3-(5-amino-9-fluoro-7-methoxy-[1,2,4]triazolo[1,5-c]quinazolin-2-yl)piperidin-1-yl)-3-methyl-1H-pyrazol-1-yl)butan-2-ol], the IC50 on human A2B receptors worked out at 53.4 nM; against human A2A receptors it was 0.5 nM.
